# Test results reported in PubChem BioAssay AID1963424 (Molecular Pharmacology Branch, DTP, NCI, 2024).
# Test system: 327498-153-R-J2-PDC complex spheroid growth, % test/control
# Experiment: Anticancer human tumor 327498-153-R-J2-PDC patient-derived uterine carcinosarcoma cell line growth inhibition [Asc]
# Settings: for IC50: curve of first compound; for viability, T/C: stronger effect = lower value
# Method: Multicellular complex tumor spheroid response to apoptosis pathway targeting inhibitors Alrizomadlin, Pelcitoclax, and Dasminapant in combination with a variety of drugs and investigational agents in selected tumor cell lines
# The MDM2 inhibitor alrizomadlin, the Bcl-2/Bcl-xL inhibitor pelcitoclax, and the IAPs inhibitor dasminapant were evaluated both individually and in combination with standard of care and investigational anticancer small molecules within a complex spheroid model of solid tumors. . Complex spheroids include a stromal component modeled by human endothelial cells (HUVEC) and fibroblasts modeled by human mesenchymal stem cells (MSCs). The concentration ranges selected for each drug and investigational agent were based upon clinically achievable concentrations if the clinical Cmax of the agent was known.
# Compounds. The drugs and investigational agents: alrizomadlin (APG-115; NSC831270), pelcitoclax (APG-1252; NSC835773), dasminapant (APG-1387;NSC834197), TAK-243 (NSC785004), copanlisib (NSC809693), olaparib (NSC753686), talazoparib (NSC767125), cobimetinib (NSC 768068), eltanexor (KPT-8602, NSC 794443), abemaciclib (NSC 768073), sotorasib (NSC818433), adagrasib (NSC 831453), MRTX-1133 (NSC 836407), Iadademestat (ORY1001, NSC 806812), and RMC-4630 (NSC839698), were obtained from the NCI Developmental Therapeutics Program Chemical Repository. The FDA-approved anticancer drug set is available from the Developmental Therapeutics Program at https://dtp.cancer.gov/organization/dscb/obtaining/available plates.htm. […] The stock solutions were prepared in dimethyl sulfoxide (DMSO, Sigma-Aldrich, St. Louis, MO, cat. D2650) at 800-fold the tested concentration and stored at -70 degrees C prior to their use. All drugs and investigational agents were tested over a range starting from a high concentration at or near the clinical Cmax and decreasing in half-log increments. If the clinical Cmax for an agent had not been determined, the highest concentration tested was 10 microM.
# The patient-derived cancer (PDC) cell lines include five colon adenocarcinomas: 186277-243-T-J2-PDC, 616215-338-R-J1-PDC, 439559-082-T-J2-PDC, 463943-066-T-J2-PDC, and 519858-162-T-J1-PDC; three pancreatic carcinomas: 323965-272-R-J2-PDC, 521955-158-R6-J3-PDC, and 521955-158-R2-J5-PDC; two uterine sarcomas: 327498-152-R-J2-PDC and 993429-296-R-J1-PDC; two rhabdomyosarcomas: 755483-174-R-J1-PDC and 772245-204-R-J1-PDC; two soft tissue sarcomas: 126254-015-R-J1-PDC and 494315-158-R-J1-PDC; two malignant fibrous histiocytomas: 317291-083-R-J1-PDC and 596521-263-R-J1-PDC; two breast carcinomas: 171881-019-R-J1-PDC and 885512-296-R-J2-PDC; and one ovarian carcinoma: 6556581-035-R-J-PDC were obtained from the NCI PDMR, (https://pdmr.cancer.gov). The established cell lines HSSY-2 synovial sarcoma (RRID:CVCL 8719), SYO-1 synovial sarcoma (RRID:CVCL_7146), MPNST malignant peripheral neural sheath tumor were obtained from the Sloan Kettering Institute. The following established cell lines were purchased from the American Type Culture Collection (ATCC, Manassas, VA), Sor the received from the NCI repository:, PANC-1 pancreatic carcinoma (CRL-1469, RRID:CVCL_0480), OVCAR-5 ovarian carcinoma (RRID:CVCL_1628), OVCAR-8 ovarian carcinoma (RRID:CVCL_1629), , MCF-7 breast carcinoma (CRL-12584, RRID:CVCL_0031), MDA-MB-231 breast carcinoma (CRL-12532, RRID:CVCL_0062), NCI-H1876 small cell lung carcinoma (CRL-5902, RRID:CVCL_1503), NCI-H510A small cell lung carcinoma (HTB-184, RRID:CVCL_1565), NCI-H1417 (CRL-5869, RRID:CVCL_1469), and NCI-H196 small cell lung carcinoma (CRL-5823, RRID:CVCL_1509). Dr. Peter Houghton (Greehey Children's Cancer Research Institute, University of Texas Health Science Center, San Antonio, TX) provided Rh-18 rhabdomyosarcoma (RRID:CVCL_1659). Pooled donor human umbilical vein endothelial cells (HUVEC, Lonza, cat. CC-2519) and human mesenchymal stem cells (hMSC, Lonza, cat. PT-2501) were purchased from Lonza (Walkersville, MD).
# Cell Culture. […]
# [1] = second compound 0.03 µM, first compound 0.0316 µM
# [2] = second compound 0.03 µM, first compound 0.1 µM
# [3] = second compound 0.0949 µM, first compound 0.0316 µM
# [4] = second compound 0.0949 µM, first compound 0.1 µM
# [5] = second compound 0.3 µM, first compound 0.0316 µM
# [6] = second compound 0.3 µM, first compound 0.1 µM
# [7] = second compound 0.949 µM, first compound 0.0316 µM
# [8] = second compound 0.949 µM, first compound 0.1 µM
# [9] = second compound 3 µM, first compound 0.0316 µM
# [10] = second compound 3 µM, first compound 0.1 µM
# 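Note: spheroids exposed to compound for 7 days after 3 days of growth.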
# 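Throughout, for viability, T/C: 100% = DMSO vehicle control wells.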
smiles,measurement,setting,value
Cn1ncnc1[C@H]1c2n[nH]c(=O)c3cc(F)cc(c23)N[C@@H]1c1ccc(F)cc1 + CCN1C(C(=O)NC23CCC(C(=O)O)(CC2)CC3)C(c2cccc(Cl)c2F)C2(C(=O)Nc3cc(Cl)ccc32)C12CCCCC2,IC50,second compound 0.03 µM,6.09 nM
same,IC50,second compound 0.0949 µM,2.66 nM
same,IC50,second compound 0.3 µM,< 0.316 nM
same,IC50,second compound 0.949 µM,< 0.316 nM
same,IC50,second compound 3 µM,< 0.316 nM
same,"viability, T/C","second compound 0.03 µM, first compound 0.000316 µM",99.9%
same,"viability, T/C","second compound 0.03 µM, first compound 0.001 µM",90%
same,"viability, T/C","second compound 0.03 µM, first compound 0.00316 µM",70.8%
same,"viability, T/C","second compound 0.03 µM, first compound 0.01 µM",34.8%
same,"viability, T/C",[1],12.6%
same,"viability, T/C",[2],6.28%
same,"viability, T/C","second compound 0.0949 µM, first compound 0.000316 µM",75.8%
same,"viability, T/C","second compound 0.0949 µM, first compound 0.001 µM",73.4%
same,"viability, T/C","second compound 0.0949 µM, first compound 0.00316 µM",45%
same,"viability, T/C","second compound 0.0949 µM, first compound 0.01 µM",17.4%
same,"viability, T/C",[3],7.19%
same,"viability, T/C",[4],4.65%
same,"viability, T/C","second compound 0.3 µM, first compound 0.000316 µM",45.2%
same,"viability, T/C","second compound 0.3 µM, first compound 0.001 µM",28.2%
same,"viability, T/C","second compound 0.3 µM, first compound 0.00316 µM",16%
same,"viability, T/C","second compound 0.3 µM, first compound 0.01 µM",6.36%
same,"viability, T/C",[5],3.88%
same,"viability, T/C",[6],3.44%
same,"viability, T/C","second compound 0.949 µM, first compound 0.000316 µM",5.73%
same,"viability, T/C","second compound 0.949 µM, first compound 0.001 µM",7.29%
same,"viability, T/C","second compound 0.949 µM, first compound 0.00316 µM",3.58%
same,"viability, T/C","second compound 0.949 µM, first compound 0.01 µM",1.98%
same,"viability, T/C",[7],2.28%
same,"viability, T/C",[8],1.93%
same,"viability, T/C","second compound 3 µM, first compound 0.000316 µM",3.13%
same,"viability, T/C","second compound 3 µM, first compound 0.001 µM",8.85%
same,"viability, T/C","second compound 3 µM, first compound 0.00316 µM",2.79%
same,"viability, T/C","second compound 3 µM, first compound 0.01 µM",2.59%
same,"viability, T/C",[9],1.49%
same,"viability, T/C",[10],2.35%
O=C(c1cc(Cc2n[nH]c(=O)c3ccccc23)ccc1F)N1CCN(C(=O)C2CC2)CC1 + CCN1C(C(=O)NC23CCC(C(=O)O)(CC2)CC3)C(c2cccc(Cl)c2F)C2(C(=O)Nc3cc(Cl)ccc32)C12CCCCC2,IC50,second compound 0.03 µM,1720 nM
same,IC50,second compound 0.0949 µM,592 nM
same,IC50,second compound 0.3 µM,< 31.6 nM
same,IC50,second compound 0.949 µM,< 31.6 nM
same,IC50,second compound 3 µM,< 31.6 nM
same,"viability, T/C",[1],94.9%
same,"viability, T/C",[2],83.6%
same,"viability, T/C","second compound 0.03 µM, first compound 0.316 µM",80.9%
same,"viability, T/C","second compound 0.03 µM, first compound 1 µM",63.6%
same,"viability, T/C","second compound 0.03 µM, first compound 3.16 µM",35%
same,"viability, T/C","second compound 0.03 µM, first compound 10 µM",9.54%
same,"viability, T/C",[3],74.5%
same,"viability, T/C",[4],63%
same,"viability, T/C","second compound 0.0949 µM, first compound 0.316 µM",61%
same,"viability, T/C","second compound 0.0949 µM, first compound 1 µM",42.8%
same,"viability, T/C","second compound 0.0949 µM, first compound 3.16 µM",14.8%
same,"viability, T/C","second compound 0.0949 µM, first compound 10 µM",5.01%
same,"viability, T/C",[5],33.6%
same,"viability, T/C",[6],29.5%
same,"viability, T/C","second compound 0.3 µM, first compound 0.316 µM",20.9%
same,"viability, T/C","second compound 0.3 µM, first compound 1 µM",17.4%
same,"viability, T/C","second compound 0.3 µM, first compound 3.16 µM",5.47%
same,"viability, T/C","second compound 0.3 µM, first compound 10 µM",3.11%
same,"viability, T/C",[7],9.62%
same,"viability, T/C",[8],5.99%
same,"viability, T/C","second compound 0.949 µM, first compound 0.316 µM",4.91%
same,"viability, T/C","second compound 0.949 µM, first compound 1 µM",4.88%
same,"viability, T/C","second compound 0.949 µM, first compound 3.16 µM",3.33%
same,"viability, T/C","second compound 0.949 µM, first compound 10 µM",2.8%
same,"viability, T/C",[9],2.94%
same,"viability, T/C",[10],3.36%
same,"viability, T/C","second compound 3 µM, first compound 0.316 µM",2.53%
same,"viability, T/C","second compound 3 µM, first compound 1 µM",3.39%
same,"viability, T/C","second compound 3 µM, first compound 3.16 µM",2.26%
same,"viability, T/C","second compound 3 µM, first compound 10 µM",2.33%
